≈ marks a conversion by molar mass, not a printed value. Read-outs that look alike come from different tables or passages of the source.
How the values were obtained:
[1] = tested on: S. aureus ATCC29213; experiment: Fluorescent competition assay, release of fluorescent vancomycin; conditions: cells saturated with FL-VAN, Fig. 7 left panel
[2] = tested on: E. faecium; experiment: microbe, parasite or virus in culture; type: cell-based; conditions: Enterococcus faecium
Description: (§1) We determined the minimal inhibitory concentrations (MIC) of the teicoplanin conjugates for a large panel of Gram-positive bacterial strains, using vancomycin, unmodified teicoplanin, dalbavancin and oritavancin as reference compounds. […] The bacterial strains (see Suppl. Table S5 for all details) were selected to achieve maximum diversity of multidrug-resistance and include strains with known mechanisms of resistance to glycopeptides in clinical use. The S. epidermidis and S. haemolyticus strains resistant to dalbavancin and oritavancin were obtained in vitro from clinical isolates sensitive to the glycopeptide antibiotics.

[3] = tested on: S. epidermidis; experiment: microbe, parasite or virus in culture; type: cell-based; conditions: Staphylococcus epidermidis
Description: as §1

[4] = tested on: S.pyogenes; experiment: MIC, broth microdilution; type: cell-based; conditions: Streptococcus pyogenes
Description: as §1

[5] = tested on: S. haemolyticus; experiment: MIC, broth microdilution; type: cell-based; conditions: Staphylococcus haemolyticus
Description: as §1

[6] = tested on: S. aureus; experiment: MIC, broth microdilution; type: cell-based; conditions: Staphylococcus aureus
Description: as §1

[7] = tested on: E. faecalis; experiment: MIC, broth microdilution; type: cell-based; conditions: Enterococcus faecalis
Description: as §1

[8] = Cytotoxicity in mock-infected HEL cells (MTS); type: cell-based, human; conditions: human
[9] = tested on: HCoV-229E; experiment: CPE reduction assay, HCoV-229E in HEL cells; type: cell-based; conditions: Human coronavirus 229E, MTS, mean of 2–3 tests
[10] = tested on: SARS-CoV-2; experiment: microbe, parasite or virus in culture; type: cell-based; conditions: Severe acute respiratory syndrome coronavirus 2, 72 h; Calu-3 cells, three days, XTT; read-out: EC50, CPE reduction, SARS-CoV-2 in Calu-3 cells
[11] = in vitro; conditions: human
[12] = tested on: SARS-CoV-2; experiment: microbe, parasite or virus in culture; type: cell-based; conditions: Severe acute respiratory syndrome coronavirus 2, Vero C1008, 72 h; Vero E6 cells, three days, XTT; read-out: EC50, CPE reduction, SARS-CoV-2 in Vero E6 cells
[13] = Cytotoxicity in mock-infected VeroE6 cells (XTT); type: cell-based, African green monkey; conditions: African green monkey; mock-infected Vero E6 cells, three days, XTT

In the case of `CN[C@H](CC(C)C)C(=O)N[C@H]1C(=O)N[C@@H](CC(N)=O)C(=O)N[C@H]2C(=O)N[C@H]3C(=O)N[C@H](C(=O)N[C@H](C(=O)O)c4cc(O)cc(O)c4-c4cc3ccc4O)[C@H](O[C@H]3C[C@](C)(N)[C@@H](O)[C@H](C)O3)c3ccc(c(Cl)c3)Oc3cc2cc(c3O[C@@H]2O[C@H](CO)[C@@H](O)[C@H](O)[C@H]2O[C@H]2C[C@](C)(NCc3ccc(-c4ccc(Cl)cc4)cc3)[C@@H](O)[C@H](C)O2)Oc2ccc(cc2Cl)[C@H]1O` [ORI, oritavancin, reference compound], the “Outcompeting fluorescent vancomycin from S. aureus (in words)” value [1] is reported as “less pronounced”, the MIC ([2]; read-out: Average MIC value, E. faecium VAN^R,TEI^R/VanA, 8 strains) is reported as 0.12 µg/mL (≈ 0.0669 µM) and the MIC ([2]; read-out: Average MIC value, E. faecium VAN^S, TEI^S, 1 strain) is reported as 0.0625 µg/mL (≈ 0.0349 µM). The MIC ([2]; read-out: MIC value, E.faecium E335, VAN,TEI,LNZ/VanA) was 0.125 µg/mL (≈ 0.0697 µM), the MIC ([2]; read-out: MIC value, E.faecium E355, VAN,TEI,LNZ/VanA) was 0.0625 µg/mL (≈ 0.0349 µM) and the MIC ([2]; read-out: MIC value, E.faecium E832, VAN,TEI,LNZ/VanA) was 0.125 µg/mL (≈ 0.0697 µM). It also gave an MIC ([2]; read-out: MIC value, E.faecium E854, VAN,TEI,LNZ/VanA) of 0.0625 µg/mL (≈ 0.0349 µM), an MIC ([2]; read-out: MIC value, E.faecium E859, VAN,TEI,LNZ/VanA) of 0.0625 µg/mL (≈ 0.0349 µM) and an MIC ([2]; read-out: MIC value, E.faecium E1114, VAN,TEI,LNZ/VanA) of 0.25 µg/mL (≈ 0.139 µM). For the same compound, the MIC ([2]; read-out: MIC value, E.faecium E1131, VAN,TEI,LNZ/VanA) was 0.125 µg/mL (≈ 0.0697 µM), the MIC ([2]; read-out: MIC value, E.faecium E1132, VAN,TEI,LNZ/VanA) was 0.125 µg/mL (≈ 0.0697 µM) and the MIC ([2]; read-out: MIC value, E.faecium TX0016) was 0.0625 µg/mL (≈ 0.0349 µM). It also gave an MIC ([3]; read-out: Average MIC value, S. epidermidis mecA, 6 strains) of 1.2 µg/mL (≈ 0.669 µM), an MIC ([3]; read-out: MIC value, S.epidermidis ORI_R1, mecA) of 4 µg/mL (≈ 2.23 µM) and an MIC ([3]; read-out: MIC value, S.epidermidis ORI_R2, mecA) of 0.5 µg/mL (≈ 0.279 µM). For the same compound, the MIC ([3]; read-out: MIC value, S.epidermidis ORI_R3, mecA) was 2 µg/mL (≈ 1.12 µM), the MIC ([3]; read-out: MIC value, S.epidermidis ORI_R4, mecA) was 0.5 µg/mL (≈ 0.279 µM) and the MIC ([3]; read-out: MIC value, S.epidermidis TEI_R1, mecA) was 0.125 µg/mL (≈ 0.0697 µM). The MIC ([3]; read-out: MIC value, S.epidermidis TEI_R2, mecA) was 0.125 µg/mL (≈ 0.0697 µM), the MIC ([4]; read-out: MIC value, S.pyogenes H232) was 0.125 µg/mL (≈ 0.0697 µM) and the MIC ([4]; read-out: MIC value, S.pyogenes H550) was 0.0625 µg/mL (≈ 0.0349 µM). It also gave an MIC ([4]; read-out: MIC value, S.pyogenes H578) of 0.0625 µg/mL (≈ 0.0349 µM), an MIC ([5]; S. haemolyticus mecA, 6 strains, read-out: Average MIC value) of 0.24 µg/mL (≈ 0.134 µM) and an MIC ([5]; S.haemolyticus DALB_R1, mecA, read-out: MIC value) of 0.25 µg/mL (≈ 0.139 µM). It also gave an MIC ([5]; S.haemolyticus DALB_R2, mecA, read-out: MIC value) of 0.25 µg/mL (≈ 0.139 µM), an MIC ([5]; S.haemolyticus DALB_R3, mecA, read-out: MIC value) of 0.25 µg/mL (≈ 0.139 µM) and an MIC ([5]; S.haemolyticus DALB_R4, mecA, read-out: MIC value) of 0.0625 µg/mL (≈ 0.0349 µM). For the same compound, the MIC ([5]; S.haemolyticus DALB_R5, mecA, read-out: MIC value) was 0.125 µg/mL (≈ 0.0697 µM), the MIC ([5]; S.haemolyticus ORI_R1, mecA, read-out: MIC value) was 0.5 µg/mL (≈ 0.279 µM) and the MIC ([6]; ATCC 29213 / MSSA, read-out: MIC value, S. aureus ATCC29213, MSSA) was 0.125 µg/mL (≈ 0.0697 µM). For the same compound, the MIC ([6]; MRSA / USA300, read-out: MIC value, S. aureus USA300, CA-MRSA) was 0.0625 µg/mL (≈ 0.0349 µM), the MIC ([6]; MRSA, read-out: Average MIC value, S. aureus CA-MRSA, 1 strain) was 0.0625 µg/mL (≈ 0.0349 µM) and the MIC ([6]; MRSA, read-out: Average MIC value, S. aureus MRSA, 7 strains) was 0.14 µg/mL (≈ 0.0781 µM). It also gave an MIC ([6]; MRSA, read-out: MIC value, S. aureus 73OL, MRSA) of 0.125 µg/mL (≈ 0.0697 µM), an MIC ([6]; MRSA, read-out: MIC value, S. aureus 214OL, MRSA) of 0.125 µg/mL (≈ 0.0697 µM) and an MIC ([6]; MRSA, read-out: MIC value, S. aureus 1041OL, MRSA) of 0.125 µg/mL (≈ 0.0697 µM). The MIC ([6]; MRSA, read-out: MIC value, S. aureus A6918, MRSA) was 0.125 µg/mL (≈ 0.0697 µM), the MIC ([6]; MRSA, read-out: MIC value, S. aureus A6919, MRSA) was 0.125 µg/mL (≈ 0.0697 µM) and the MIC ([6]; MRSA, read-out: MIC value, S. aureus Mu50, MRSA) was 0.25 µg/mL (≈ 0.139 µM). For the same compound, the MIC ([6]; MRSA, read-out: MIC value, S. aureus N315, MRSA) was 0.125 µg/mL (≈ 0.0697 µM), the MIC ([6]; MSSA / NEWMAN, read-out: MIC value, S. aureus Newman, MSSA) was 0.0625 µg/mL (≈ 0.0349 µM) and the MIC ([6]; MSSA, read-out: Average MIC value, S. aureus MSSA, 4 strains) was 0.078 µg/mL (≈ 0.0435 µM). For the same compound, the MIC ([6]; MSSA, read-out: MIC value, S. aureus MSSA476, MSSA) was 0.0625 µg/mL (≈ 0.0349 µM), the MIC ([6]; MSSA, read-out: MIC value, S. aureus SA564, MSSA) was 0.0625 µg/mL (≈ 0.0349 µM) and the MIC ([7]; read-out: Average MIC value, E. faecalis VAN^R,TEI^R/VanA, 1 strain) was 0.125 µg/mL (≈ 0.0697 µM). The MIC ([7]; read-out: Average MIC value, E. faecalis VAN^S, TEI^S, 2 strains) was 0.0625 µg/mL (≈ 0.0349 µM), the MIC ([7]; read-out: MIC value, E.faecalis JH2-2) was 0.0625 µg/mL (≈ 0.0349 µM) and the MIC ([7]; read-out: MIC value, E.faecalis OG1RF) was 0.0625 µg/mL (≈ 0.0349 µM). For the same compound, the MIC ([7]; read-out: MIC value, E.faecalis V583, VAN,TEI/VanA) was 0.125 µg/mL (≈ 0.0697 µM).
In the case of `N#C[C@@]1(c2ccc3c(N)ncnn23)O[C@H](CO)[C@@H](O)[C@H]1O` [GS-441524, reference compound], the CC50 at 5 days [8] is reported as > 40 µM and the EC50 [9] is reported as 3 µM.
In the case of `CCC(CC)COC(=O)[C@H](C)N[P@](=O)(OC[C@H]1O[C@@](C#N)(c2ccc3c(N)ncnn23)[C@H](O)[C@@H]1O)Oc1ccccc1` [Remdesivir, remdesivir, reference compound], the EC50 [10] is reported as 0.3 ± 0.03 µM, the CC50 [11] is reported as > 50 µM and the EC50 [12] is reported as 2.5 ± 0.2 µM. For the same compound, the CC50 [13] was > 100 µM.
